The source of these data is ChEMBL document CHEMBL1201862, “PubChem BioAssay data set” (2004).

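Exposure lasted 48 hours, with cells grown in 96-well plates and compounds tested at five concentrations. Here, GI50 denotes the concentration required for 50% inhibition of growth.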 The source made the active and inactive calls. Cut-off read from the data, not from the text of the source: active = GI50 up to about 1.1 µM and inactive = higher. A value given as a limit tells only on which side of the number the result lay.

Test systems include OVCAR-3; Malme-3M; HCT-116; SK-OV-3; A549; A498; OVCAR-5; DMS-273; MOLT-4; U-251; CAKI-1; SF-295; IGROV-1; SK-MEL-28; SNB-19; KM12; K562; DU-145; MDA-MB-435; Hs-578T.
Experiment in all cases: growth of human tumour cells (NCI), 48 h

On to `Oc1ccc2c(c1)OCC1(O)Cc3cc(O)c(O)cc3C21` (stereo not drawn), for which the GI50 in the test with OVCAR-3 is 16.2 µM (inactive); with Malme-3M, 16.9 µM (inactive); in the test with HCT-116, 21 µM (inactive); with SK-OV-3, 39.9 µM (inactive); in the test with A549, > 57.7 µM (inactive); in the test on A498 it was 19.1 µM (inactive). Moreover, the GI50 in the test with OVCAR-5 is 22.5 µM (inactive); in the test on DMS-273 it was 35.8 µM (inactive); in the test with MOLT-4 it was 24.4 µM (inactive); in the test with U-251, 18.7 µM (inactive); in the test with CAKI-1, 18.1 µM (inactive); in the test on SF-295 it was > 55.5 µM (inactive). Also, the GI50 is 39.6 µM (inactive) with IGROV-1; 17.5 µM (inactive) with SK-MEL-28; 28.7 µM (inactive) with SNB-19; 32.7 µM (inactive) with KM12; 27.7 µM (inactive) with K562.
As for `O=C(CC1(O)C(=O)Nc2c(Cl)ccc(Cl)c21)c1ccco1` (stereo not drawn), the GI50 was 13.5 µM (inactive) in the test on OVCAR-3; 20 µM (inactive) in the test with Malme-3M; 14 µM (inactive) in the test with HCT-116; 31.5 µM (inactive) in the test on SK-OV-3; 23 µM (inactive) with A549; 30.4 µM (inactive) in the test on A498. For the same compound, the GI50 in the test with OVCAR-5 was 20.9 µM (inactive); with DMS-273, 34.6 µM (inactive); with DU-145, 40.3 µM (inactive); in the test with MOLT-4 it was 24.9 µM (inactive); in the test on U-251, 22.7 µM (inactive); in the test with CAKI-1, 26.1 µM (inactive). Moreover, the GI50 in the test with MDA-MB-435 is 1.85 µM (inactive); in the test on Hs-578T, 26 µM (inactive); with SF-295 it was 20.1 µM (inactive); in the test with IGROV-1 it was 18.3 µM (inactive); with SK-MEL-28, 19.5 µM (inactive); in the test on SNB-19 it was 42.3 µM (inactive). The figures for the GI50 with KM12 and in the test with K562 were 27 µM (inactive) and > 10 µM (inactive), respectively.
Consider `C[N+](C)(C)CC(=O)NC(=O)N/N=C\C(CC#N)CN(Cc1ccccc1)Cc1ccccc1` (stereo not drawn), for which the GI50 in the test on OVCAR-3 is > 100 µM (inactive); in the test on Malme-3M, 58.2 µM (inactive); with HCT-116 it was > 100 µM (inactive); in the test with SK-OV-3, > 100 µM (inactive); in the test with A549 it was > 100 µM (inactive); in the test on A498, > 100 µM (inactive). Further, the GI50 was > 100 µM (inactive) in the test with OVCAR-5; > 100 µM (inactive) in the test with DMS-273; > 100 µM (inactive) with MOLT-4; > 100 µM (inactive) in the test with U-251; > 100 µM (inactive) in the test with CAKI-1; 38 µM (inactive) in the test with SF-295. The GI50 with IGROV-1, in the test with SK-MEL-28, in the test with SNB-19, with KM12 and with K562 was > 100 µM (inactive) in each case.
For `Cc1cc(O)nc(CNC(=O)c2ccc3ccccc3c2)n1`, the GI50 in the test with OVCAR-3, with Malme-3M, in the test on HCT-116, in the test on SK-OV-3, in the test with A549 and in the test on A498 was > 100 µM (inactive) throughout. Besides, the GI50 with OVCAR-5, in the test on DMS-273, in the test with MOLT-4, in the test on U-251, with CAKI-1 and with SF-295 was > 100 µM (inactive) each time. Moreover, the GI50 with IGROV-1, in the test on SK-MEL-28, with SNB-19, in the test with KM12 and in the test with K562 was > 100 µM (inactive) in each case.
Regarding `CN(C)CCNC(=O)c1cc2ccccc2c2nc3ccccc3nc12`, the GI50 in the test on OVCAR-3 is 2.1 µM (inactive); in the test on Malme-3M, 0.818 µM (active); with HCT-116 it was 0.373 µM (active); in the test with SK-OV-3, 4.97 µM (inactive); with A549 it was 0.977 µM (active); in the test with A498, 1.14 µM (inactive). For the same compound, the GI50 with OVCAR-5 is 1.94 µM (inactive); in the test on DMS-273 it was 0.448 µM (active); with MOLT-4 it was 0.153 µM (active); in the test with U-251 it was 0.986 µM (active); in the test with CAKI-1 it was 2.67 µM (inactive); in the test with SF-295, 0.575 µM (active). Moreover, the GI50 in the test on IGROV-1 was 1.45 µM (inactive); with SK-MEL-28 it was 1.56 µM (inactive); in the test on SNB-19, 1.43 µM (inactive); with KM12 it was 0.804 µM (active); in the test on K562, 0.363 µM (active).
